# Results as given in patent publication US9382228B2 (priority 2013, dated 2016).
# Tests used:
# [1] = tested on: phospho-FMS in THP-1 cells; test: cells; settings: Homo sapiens, THP-1, read-out: pFMS inhibition in THP-1 cells
# Description: In a separate 96 well black clear bottom plate, one hundred and fifty thousand THP-1 cells were added per well in 100 μL in assay medium. Fifty microliters of diluted compound was then added to the cells. […] Lysates were prepared and used to perform the phospho-FMS ELISA as described by the manufacturer (catalog #DYC3268, R & D Systems, Minneapolis, Minn.). GraphPad Prism was used to calculate IC50 values obtained from data generated from the ELISA assay.
# osteoclast precursors = test: cells; type: cell-based; settings: read-out: Osteoclast assay
# [2] = biological target: T1, unphosphorylated c-FMS kinase (uFMS, Seq. ID no. 1) (Homo sapiens, UniProt P07333); test: biochemical; settings: uFMS, enzymatic assay, ATP 500 μM
# T1 sequence (P07333 538-972): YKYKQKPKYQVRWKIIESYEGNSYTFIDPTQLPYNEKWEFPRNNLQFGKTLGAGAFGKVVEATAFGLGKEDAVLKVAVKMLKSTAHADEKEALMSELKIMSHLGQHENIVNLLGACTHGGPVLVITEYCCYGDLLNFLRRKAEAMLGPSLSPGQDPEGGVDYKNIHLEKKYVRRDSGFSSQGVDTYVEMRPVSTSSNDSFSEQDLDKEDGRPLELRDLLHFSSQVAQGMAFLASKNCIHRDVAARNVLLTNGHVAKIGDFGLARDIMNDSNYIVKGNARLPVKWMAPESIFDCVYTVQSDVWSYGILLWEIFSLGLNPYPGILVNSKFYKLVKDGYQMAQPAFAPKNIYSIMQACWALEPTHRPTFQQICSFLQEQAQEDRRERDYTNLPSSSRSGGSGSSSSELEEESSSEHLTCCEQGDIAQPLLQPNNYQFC
# [3] = biological target: unphosphorylated PDGFRβ kinase (uPDGFRβ, Seq. ID No. 3) (Homo sapiens, UniProt P09619); test: biochemical; settings: uPDGFRb, enzymatic assay, ATP 500 μM
# Chain of unphosphorylated PDGFRβ kinase (uPDGFRβ, Seq. ID No. 3) (P09619 557-1106): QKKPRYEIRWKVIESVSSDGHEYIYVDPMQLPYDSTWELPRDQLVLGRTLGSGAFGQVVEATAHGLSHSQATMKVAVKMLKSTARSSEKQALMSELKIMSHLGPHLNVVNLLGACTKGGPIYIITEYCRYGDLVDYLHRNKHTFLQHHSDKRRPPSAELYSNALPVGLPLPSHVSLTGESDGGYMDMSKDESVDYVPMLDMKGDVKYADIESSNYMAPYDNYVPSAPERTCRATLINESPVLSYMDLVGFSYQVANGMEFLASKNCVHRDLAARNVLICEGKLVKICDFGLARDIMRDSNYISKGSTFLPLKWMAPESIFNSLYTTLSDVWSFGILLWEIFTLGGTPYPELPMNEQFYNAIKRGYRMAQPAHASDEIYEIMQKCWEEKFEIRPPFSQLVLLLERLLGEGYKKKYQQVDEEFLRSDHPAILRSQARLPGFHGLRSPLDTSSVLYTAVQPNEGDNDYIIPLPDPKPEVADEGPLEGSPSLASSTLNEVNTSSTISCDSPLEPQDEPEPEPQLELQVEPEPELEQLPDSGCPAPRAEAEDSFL
# M-NFS-60 cells = test: cells; settings: 67 h, read-out: M-NFS-60 cell proliferation
# Description: M-NFS-6 Cell Proliferation Assay
# A serial dilution of test compound was dispensed into a 384-well black clear bottom plate (Corning, Corning, N.Y.). Two thousand five hundred cells were added per well in 50 μL complete growth medium. […] IC50 values were calculated from a series of percent inhibition values determined at a range of inhibitor concentrations using software routines as implemented in the GraphPad Prism software package.
# [4] = biological target: unphosphorylated c-KIT kinase (uKIT, Seq. ID no. 2) (Homo sapiens, UniProt P10721); test: biochemical; settings: uKIT, enzymatic assay, ATP 2000 μM
# Chain of unphosphorylated c-KIT kinase (uKIT, Seq. ID no. 2) (P10721 with tags, fused parts or gaps): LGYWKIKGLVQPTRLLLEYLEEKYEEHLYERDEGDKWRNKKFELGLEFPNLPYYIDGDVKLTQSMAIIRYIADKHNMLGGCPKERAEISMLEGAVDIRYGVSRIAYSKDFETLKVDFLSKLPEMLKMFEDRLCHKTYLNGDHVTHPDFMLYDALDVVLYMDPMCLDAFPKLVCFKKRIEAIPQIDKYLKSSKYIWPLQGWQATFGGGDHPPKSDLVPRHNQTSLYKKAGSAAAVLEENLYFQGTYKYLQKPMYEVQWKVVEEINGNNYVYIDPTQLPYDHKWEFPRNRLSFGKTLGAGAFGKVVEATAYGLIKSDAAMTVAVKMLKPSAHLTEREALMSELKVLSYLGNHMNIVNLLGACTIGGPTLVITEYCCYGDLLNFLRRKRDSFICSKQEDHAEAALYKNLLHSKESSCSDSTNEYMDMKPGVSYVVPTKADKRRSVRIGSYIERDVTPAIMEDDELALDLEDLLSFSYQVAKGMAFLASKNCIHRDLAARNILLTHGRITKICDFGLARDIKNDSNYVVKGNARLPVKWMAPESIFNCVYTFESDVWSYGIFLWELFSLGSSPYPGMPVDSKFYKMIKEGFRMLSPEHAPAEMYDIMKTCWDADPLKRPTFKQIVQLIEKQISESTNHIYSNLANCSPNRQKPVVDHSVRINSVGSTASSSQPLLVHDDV
# Description: uKit kinase (Seq. ID No. 2) Assay
# In this assay, the oxidation of NADH (thus the decrease at A340 nm) was continuously monitored spectrophometrically. […] The inhibition reaction was started by mixing serial diluted test compound with the above reaction mixture. The absorption at 340 nm was monitored continuously for 4 hours at 30° C. on Synergy 2 plate reader (BioTech).
IC50 [1],IC50 (osteoclast precursors),IC50 [2],IC50 [3],IC50 [4],Compound,IC50 (M-NFS-60 cells)
< 10 nM,< 10 nM,< 10 nM,> 1000 nM,100 to 1000 nM,"Cn1cc(-c2cc(Oc3ccc(NC(=O)NC(=O)C4CCOC4)nc3)ccn2)cn1 (stereo not drawn) [Example 66, N-((5-((2-(1-methyl-1H-pyrazol-4-yl)pyridin-4-yl)oxy)pyridin-2-yl)carbamoyl)tetrahydrofuran-3-carboxamide]",10 to 100 nM
10 to 100 nM,10 to 100 nM,10 to 100 nM,> 1000 nM,100 to 1000 nM,"Cn1cc(-c2cc(Oc3cnc(NC(=O)NC(=O)C(C)(C)C)nc3)ccn2)cn1 [Example 174, N-((5-((2-(1-methyl-1H-pyrazol-4-yl)pyridin-4-yl)oxy)pyrimidin-2-yl)carbamoyl)pivalamide]",10 to 100 nM
< 10 nM,10 to 100 nM,< 10 nM,> 1000 nM,> 1000 nM,"Cc1ncc(-c2cc(Oc3ccc(NC(=O)NC(=O)C(C)(C)C)nc3C)ccn2)s1 [Example 86, N-((6-methyl-5-((2-(2-methylthiazol-5-yl)pyridin-4-yl)oxy)pyridin-2-yl)carbamoyl)pivalamide]",< 10 nM
< 10 nM,< 10 nM,< 10 nM,100 to 1000 nM,100 to 1000 nM,"Cc1nc(NC(=O)NC(=O)C2(C)CCC2)ccc1Oc1ccnc(-c2cnn(C)c2)c1 [Example 92, 1-methyl-N-((6-methyl-5-((2-(1-methyl-1H-pyrazol-4-yl)pyridin-4-yl)oxy)pyridin-2-yl)carbamoyl)cyclobutanecarboxamide]",< 10 nM
< 10 nM,< 10 nM,< 10 nM,10 to 100 nM,< 10 nM,"Cc1nc(NC(=O)NC(=O)C2CC(C)(C)C2)ccc1Oc1ccnc(-c2cnn(C)c2)c1 [Example 13, 3,3-dimethyl-N-((6-methyl-5-((2-(1-methyl-1H-pyrazol-4-yl)pyridin-4-yl)oxy)pyridin-2-yl)carbamoyl)cyclobutanecarboxamide]",< 10 nM
< 10 nM,< 10 nM,< 10 nM,100 to 1000 nM,10 to 100 nM,"COC(C)(C)C(=O)NC(=O)Nc1cc(C)c(Oc2ccnc(-c3cnn(C)c3)c2)cn1 [Example 91, 2-methoxy-2-methyl-N-((4-methyl-5-((2-(1-methyl-1H-pyrazol-4-yl)pyridin-4-yl)oxy)pyridin-2-yl)carbamoyl)propanamide]",< 10 nM
10 to 100 nM,10 to 100 nM,< 10 nM,> 1000 nM,> 1000 nM,"Cc1nc(NC(=O)NC(=O)C(C)(C)C)ccc1Oc1ccnc(-c2c[nH]nn2)c1 [Example 171, N-((5-((2-(1H-1,2,3-triazol-4-yl)pyridin-4-yl)oxy)-6-methylpyridin-2-yl)carbamoyl)pivalamide]",10 to 100 nM
10 to 100 nM,< 10 nM,10 to 100 nM,> 1000 nM,> 1000 nM,"Cc1cn(-c2cc(Oc3ccc(NC(=O)NC(=O)C4(C)CC4)nc3C)ccn2)cn1 [Example 135, 1-methyl-N-((6-methyl-5-((2-(4-methyl-1H-imidazol-1-yl)pyridin-4-yl)oxy)pyridin-2-yl)carbamoyl)cyclopropanecarboxamide]",10 to 100 nM

# More lines, now with the values behind:
Compound,IC50 [1],IC50 (osteoclast precursors),IC50 [2],IC50 [3],IC50 [4],IC50 (M-NFS-60 cells)
"CCOC(C)(C)C(=O)NC(=O)Nc1ccc(Oc2ccnc(-c3cnn(C)c3)c2)cn1 [Example 123, 2-ethoxy-2-methyl-N-((5-((2-(1-methyl-1H-pyrazol-4-yl)pyridin-4-yl)oxy)pyridin-2-yl)carbamoyl)propanamide]",10 to 100 nM,< 10 nM,< 10 nM,100 to 1000 nM,100 to 1000 nM,10 to 100 nM
"Cc1cc(NC(=O)NC(=O)C(C)(C)C)ncc1Oc1ccnc(-c2cnn(C)c2)c1 [Example 84, N-((4-methyl-5-((2-(1-methyl-1H-pyrazol-4-yl)pyridin-4-yl)oxy)pyridin-2-yl)carbamoyl)pivalamide]",< 10 nM,< 10 nM,< 10 nM,100 to 1000 nM,100 to 1000 nM,< 10 nM
"CC(C)c1nc(-c2cc(Oc3ccc(NC(=O)NC(=O)C(C)(C)C)nc3)ccn2)c[nH]1 [Example 169, N-((5-((2-(2-isopropyl-1H-imidazol-4-yl)pyridin-4-yl)oxy)pyridin-2-yl)carbamoyl)pivalamide]",< 10 nM,10 to 100 nM,< 10 nM,> 1000 nM,> 1000 nM,10 to 100 nM
"COC(C)(C)C(=O)NC(=O)Nc1ccc(Oc2ccnc(-c3cnc(C(C)C)[nH]3)c2)cn1 [Example 173, N-((5-((2-(2-isopropyl-1H-imidazol-5-yl)pyridin-4-yl)oxy)pyridin-2-yl)carbamoyl)-2-methoxy-2-methylpropanamide]",< 10 nM,10 to 100 nM,10 to 100 nM,> 1000 nM,> 1000 nM,10 to 100 nM
"Cn1cc(-c2cc(Oc3ccc(NC(=O)NC(=O)C4(C)CCOCC4)nc3)ccn2)cn1 [Example 175, 4-methyl-N-((5-((2-(1-methyl-1H-pyrazol-4-yl)pyridin-4-yl)oxy)pyridin-2-yl)carbamoyl)tetrahydro-2H-pyran-4-carboxamide]",10 to 100 nM,10 to 100 nM,< 10 nM,100 to 1000 nM,100 to 1000 nM,10 to 100 nM
"CC(C)(C)C(=O)NC(=O)Nc1ccc(Oc2ccnc(-c3cnco3)c2)cn1 [Example 93, N-((5-((2-(oxazol-5-yl)pyridin-4-yl)oxy)pyridin-2-yl)carbamoyl)pivalamide]",< 10 nM,< 10 nM,10 to 100 nM,> 1000 nM,> 1000 nM,10 to 100 nM
"Cn1cc(-c2cc(Oc3ccc(NC(=O)NC(=O)C4CC5(CCC5)C4)nc3)ccn2)cn1 [Example 31, N-((5-((2-(1-methyl-1H-pyrazol-4-yl)pyridin-4-yl)oxy)pyridin-2-yl)carbamoyl)spiro[3.3]heptane-2-carboxamide]",10 to 100 nM,< 10 nM,< 10 nM,< 10 nM,< 10 nM,< 10 nM
"Cc1ccc(-c2cc(Oc3ccc(NC(=O)NC(=O)C4CCOCC4)nc3)ccn2)cn1 [Example 103, N-((5-((6′-methyl-[2,3′-bipyridin]-4-yl)oxy)pyridin-2-yl)carbamoyl)tetrahydro-2H-pyran-4-carboxamide]",< 10 nM,10 to 100 nM,10 to 100 nM,100 to 1000 nM,> 1000 nM,10 to 100 nM
"Cc1nc(NC(=O)NC(=O)C(C)(C)C(F)(F)F)ccc1Oc1ccnc(-c2cnn(C)c2)c1 [Example 36, 3,3,3-trifluoro-2,2-dimethyl-N-((6-methyl-5-((2-(1-methyl-1H-pyrazol-4-yl)pyridin-4-yl)oxy)pyridin-2-yl)carbamoyl)propanamide]",10 to 100 nM,10 to 100 nM,< 10 nM,100 to 1000 nM,100 to 1000 nM,10 to 100 nM
